According to ChEMBL document CHEMBL5441142, “Probing the Merck KGaA Open Global health library for novel starting points for anti-schistosomal drug discovery” (2024):
Calls of active or inactive are those of the source. How the calls were made is not given here.

Test system: Schistosoma mansoni
Test: In vitro activity screen on S. mansoni schistosomula at 10 uM. Compound-induced effects were assessed by quantifying larva motility and phenotype using Roboworm.
Format: functional, organism-based
Set-up: test concentration 10 uM, temperature 37 degree C, time incubation 72 h
Conditions: Puerto Rican

SMILES | In vitro activity
COc1ccccc1CCN1CCC2(CC1)OC(=O)C(C)=C2C(=O)N1CCc2ccc(C(F)(F)F)cc2C1 | inactive
COc1ccc(CNc2nc([C@H]3CC[C@H](C(=O)O)CC3)nc3sc4ccccc4c23)cc1Cl | inactive
COc1cc(OC)c(CCNC(=O)c2cn3cc(-c4cc(OCC(=O)O)ccc4OC)nc3s2)c(OC)c1 | inactive
CCCN1CCC2(CC1)OC(=O)C(C)=C2C(=O)N1CCc2ccc(C(F)(F)F)cc2C1 | inactive
COCc1cc(-c2nc(-c3cc(F)cc(CN(C)CCC(=O)O)c3)no2)ccc1-c1ccccc1C | inactive
Cc1cc(C2CCC2)c(S(C)(=O)=O)cc1C(=O)N=C(N)N | inactive
CC1=C(C(=O)N2CCN(c3cccc(C(F)(F)F)c3)CC2)C2(CCN(C(C)C)CC2)OC1=O | inactive
COc1cc(S(C)(=O)=O)ccc1-c1nc2ccncc2[nH]1 | inactive
COc1cc([S+]([O-])C(C)C)ccc1-c1nc2ccncc2[nH]1 (configuration not stated) | inactive
CCN1CCC2(CC1C)OC(=O)C(C)=C2C(=O)N1CCc2ccc(C(F)(F)F)cc2C1 (configuration not stated) | inactive
COc1cc(C(=O)N(C)C)ccc1-c1cc2nccc(-c3ccc4ccncc4c3)c2o1 | inactive
Cc1cc(-n2cccc2)c(S(C)(=O)=O)cc1C(=O)N=C(N)N | inactive
O=C(O)c1ccc(-c2nc(NCc3ccc4c(c3)OCO4)c3c4c(sc3n2)CCCC4)cc1 | inactive
CC1=C(C(=O)N2CCc3ccc(C(F)(F)F)cc3C2)C2(CCN(C3CCCC3)CC2)OC1=O | inactive
Cc1cc2c(NCc3ccc4c(c3)OCO4)nc(-c3ccc(C(=O)O)cc3)nc2s1 | inactive
CCCc1nn(C)c2c(=O)[nH]c(-c3cc(S(=O)(=O)Oc4ccccn4)ccc3OCC)nc12 | inactive
CCS(=O)(=O)c1cc(C)c(C(=O)N=C(N)N)cc1S(C)(=O)=O | inactive
COCc1cc(-c2nc(-c3ccc(CN(C)CCC(=O)O)c(F)c3)no2)ccc1-c1ccccc1C | inactive
COc1cc(C(=O)Nc2cn(Cc3ccc(Cl)cc3)nn2)ccc1-n1cnc(C)c1 | inactive
CCNC1=N[C@@H]2[C@@H](O)[C@H](O)[C@@H](Cn3cc(COc4ccc(C)cc4)nn3)O[C@@H]2S1 | inactive
COc1cc(OC)c(CCNC(=O)c2cn3cc(-c4cc(OCC(O)CO)ccc4OC)nc3s2)c(OC)c1 (configuration not stated) | inactive

SMILES | In vitro activity
O=C(Nc1ccc(CNc2ncnc3ccccc23)cc1)c1ccc(Cl)c(F)c1 | inactive
Cc1cc(C)c(S(C)(=O)=O)cc1C(=O)N=C(N)N | inactive
CCN1CCC2(CC1)OC(=O)C(C)=C2C(=O)N1CCc2ccc(C(F)(F)F)cc2C1 | inactive
CC1(C)Oc2ccc(C#N)cc2[C@H](n2ccccc2=O)[C@H]1O | inactive
O=C(O)CN1C(=O)[C@@]2(NC(=O)N(Cc3cc(Cl)ccc3F)C2=O)c2cc(Cl)ccc21 | inactive
CC1=C(C(=O)N2CCc3c(F)cc(C(F)(F)F)cc3C2)C2(CCN(C3CCOCC3)CC2)OC1=O | inactive
CCOC(=O)Nc1ccc(C(=O)N2CCCC(c3ccc(OC)c(OCC)c3)=N2)cc1 | inactive
CC1=C(C(=O)N2CCc3ccc(C(F)(F)F)cc3C2)C2(CCN(C)CC2)OC1=O | inactive
COCc1cc(-c2nc(-c3cc(F)cc(CN(C)CC(=O)O)c3)no2)ccc1-c1cccc(F)c1C | inactive
O=C(O)[C@H]1CC[C@H](c2nc(NCc3ccc4c(c3)OCO4)c3c(n2)sc2ccccc23)CC1 | inactive
CO[C@@H]1COCC[C@@H]1N1CCC2(CC1)OC(=O)C(C)=C2C(=O)N1CCc2ccc(C(F)(F)F)cc2C1 | inactive
Cc1cc(Oc2cccnc2)c([N+](=O)[O-])cc1C(=O)N=C(N)N | inactive
COc1cc(OC)cc(-c2cn3cc(C(=O)NCCc4c(OC)cc(OC)cc4OC)sc3n2)c1 | inactive
CC1=C(C(=O)N2COc3ccc(C(F)(F)F)cc3C2)C2(CCN(C(C)C)CC2)OC1=O | inactive
CCC(C)Oc1ccc(-c2nc(-c3cc(F)cc(CN(C)CCC(=O)O)c3)no2)cc1COC (configuration not stated) | inactive
COc1ccc(C2=NN(C(=O)c3ccc(NC(=O)c4cccnc4)cc3)CCC2)cc1OC1CCCC1 | inactive
CC1=C(C(=O)N2CCc3ccc(C(F)(F)F)cc3C2)C2(CCN(C(C)(C)C)CC2)OC1=O | inactive
COCc1cc(-c2nc(-c3cccc(CN(C)CC(=O)O)c3)no2)ccc1-c1ccccc1C | inactive
CC1=C(C(=O)N2CCN(c3cccc(C(F)(F)F)c3)CC2)C2(CCN(CCc3ccc(F)cc3)CC2)OC1=O | inactive
Cc1ccc(-c2ccccc2)cc1C(=O)N=C(N)N | inactive
Cc1cc(C2=CCCC2)c(S(C)(=O)=O)cc1C(=O)N=C(N)N | inactive

SMILES | In vitro activity
COc1cc(C(=O)Nc2nc(Nc3cccc(C(F)(F)F)c3)n(C)n2)ccc1-n1cnc(C)c1 | inactive
O=C(O)Cc1ccc(-c2nc(NCc3ccc4c(c3)OCO4)c3c(n2)sc2ccccc23)cc1 | inactive
CC1=C(C(=O)N2CCc3ccc(C(F)(F)F)cc3C2)C2(CCN(C(C)C)CC2)OC1=O | inactive
O=C(c1cc(-c2ccccn2)nc2ccc(Br)cc12)N1CCCC1 | inactive
Cc1c(C(=O)N=C(N)N)cc(-n2cccc2)c(C)c1C | inactive
Cc1cc(-c2ccccc2)c(S(C)(=O)=O)cc1C(=O)N=C(N)N | inactive
CC1=C(C(=O)N2Cc3cc(C(F)(F)F)ccc3C(C)(C)C2)C2(CCN(C3CCOCC3)CC2)OC1=O | inactive
CC1=C(C(=O)N2CCc3ncc(C(F)(F)F)cc3C2)C2(CCN(C3CCC(O)CC3)CC2)OC1=O (configuration not stated) | inactive
COCc1cc(-c2nc(-c3cc(F)cc(CN(C)CC(=O)O)c3)no2)ccc1-c1ccccc1F | inactive
CCCc1nn(C)c2c(=O)[nH]c(-c3cc(S(=O)(=O)Oc4ccc(=O)[nH]n4)ccc3OCC)nc12 | inactive
Oc1ccc2[nH]cc(CCCCN3CC=C(c4ccccc4)CC3)c2c1 | inactive
O=C(O)c1ccc(-c2nc(NCc3cccnc3)c3c(n2)sc2ccccc23)cc1 | inactive
COc1cc([S+]([O-])Cc2ccccc2)ccc1-c1nc2ccncc2[nH]1 (configuration not stated) | inactive
Cc1ccccc1-c1ccc(-c2nc(-c3ccc(CN(C)CCC(=O)O)c(F)c3)no2)cc1C(F)(F)F | inactive
COc1ccc(OCC(=O)O)cc1-c1cn2cc(C(=O)NCCc3c(OC)cccc3OC)sc2n1 | inactive
Cc1cc2c(cc1C(=O)N=C(N)N)S(=O)(=O)C(C)(C)CO2 | inactive
CCN(CCC(=O)O)Cc1cccc(-c2noc(-c3ccc(-c4ccccc4F)c(COC)c3)n2)c1 | inactive
O=C(CCN1CCCCC1)c1ccc2[nH]c(=O)sc2c1 | inactive
Cn1c2ccccc2c2c(NCc3ccc4c(c3)OCO4)nc(-c3ccc(C(=O)O)cc3)nc21 | inactive
CC1=C(C(=O)N2CCc3ccc(C(F)(F)F)cc3C2)C2(CCN(CC3CCOC3)CC2)OC1=O (configuration not stated) | inactive
